Measurements published in patent US8633324B2, “Denibulin di-hydrochloride” (Medicinova, Inc., priority 2011, dated 2014).
Where a name gives a salt, the structure may show the parent alone.

How the values were obtained:
Assay type in all cases: physicochemical
[1] = Gravimetric Vapor Sorption (GVS) hygroscopicity; details: for Weight change: GVS
Description: Moreover, neither the mono-hydrochloride salt or the di-hydrochloride salt of MN-029 show any significant change in phase as measured by XRPD analysis of samples subjected to GVS analysis (see FIG. 6).

[2] = Aqueous solubility, 24 hours equilibration in water at 25° C., HPLC, pH and XRPD of residue; details: water
Experimental: Briefly, quantitative high performance liquid chromatography (HPLC) was used to determine the aqueous solubility. X-ray powder diffraction spectrometry was also used to characterize the thermodynamic solubility of the mono-hydrochloride and di-hydrochloride salts of MN-029. After a 24 hours equilibration of each salt form in water at 25° C., the residual solid material was separated from the aqueous solution and the pH of the aqueous sample was measured. The XRPD spectrum of the solid residue obtained from the MN-029 di-hydrochloride vial indicated the solid material to be the mono-hydrochloride salt of MN-029. […] Table 4 illustrates the data from aqueous solubility studies of the mono-hydrochloride and di-hydrochloride salts of MN-029.
The suspension was equilibrated at 25° C. for 24 hours then pH was measured. The suspension was filtered and the filtrate was diluted by a factor of 101. Quantization by HPLC with a reference to a standard solution. Different volumes of the standard, diluted, and undiluted solution were injected and solubility was calculated by integration of the peak found at the same time as the principle peak in the standard solution.

[3] = Solubility in citrate buffer at different pH values (1M sodium hydroxide added), HPLC; details: for solubility: aqueous buffer, thermodynamic from solid, read-out: Solubility (free base equivalent)
Experimental: To investigate the solubility of MN-029 di-hydrochloride in citrate buffer, the di-hydrochloride salt was added in multiple small portions to 10 milliliters of an aqueous solution of citric acid (3.87 mg/ml). When no more solid dissolved, that is, when saturation was achieved, the solution in the vial was allowed to equilibrate for approximately 24 hours with shaking at 25° C. […] The pH of the saturated solution was measured prior to filtration of undissolved solid. The filtrate obtained was equally divided into five vials.
To the filtrate in each of the vials was added different volumes of 1M sodium hydroxide so as to increase the pH of the filtrate to a predetermined pH value. It was observed that the addition of base caused solid to precipitate out of solution. The reaction mixture is allowed to equilibrate with shaking at 25° C., following which the solid residue is filtered and the filtrate obtained is analyzed for presence of dissolved compound by HPLC.

[4] = Osmolality and pH of solutions in water and in 15% HPBCD
Experimental: Solutions were prepared by weighing MN-029 di-hydrochloride salt into 10-mL volumetric flasks. The drug was dissolved in water with vortexing, and samples were diluted to volume with water. Solutions of 1, 2, 4, 6 and 8 mg/mL were made according to this procedure. The samples were allowed to sit at room temperature overnight prior to pH and osmolality measurements.
All samples were clear except for the 8 mg/mL solution, which was initially clear but precipitated upon sitting overnight. As shown in Table 10 and in FIGS. 9 and 10, the pH declined in an almost linear fashion with increasing drug concentration while osmolality increased linearly with concentration up to 6 mg/mL.
The pH and osmolality were also measured for solutions of MN-029 di-hydrochloride salt in a 15% solution of hydroxypropyl-β-cyclodextrin (HPBCD). Solutions of 5, 10, 15, 20, and 30 mg/mL were prepared for analysis. The solutions were made by weighing out an appropriate amount of the compound into HPLC vials to which 1.00 mL of 15% HPBCD was added with brief vortexing. Although solutions were clear upon mixing, they were shaken overnight on an orbital shaker to assure equilibration. All solutions remained clear after overnight shaking. HPBCD at a concentration of 15% was sufficient to solubilize MN-029 di-hydrochloride up to a concentration of 30 mg/mL. As shown in Table 11 and in FIGS. 11 and 12, the pH decreased almost linearly with increasing MN-029 di-hydrochloride concentration, while the osmolality increased linearly. The dotted lines on the pH graphs (FIGS. 9 and 11) connect the data points for clarity while the dotted lines on the osmolality graphs (FIGS. 10 and 12) are linear regressions of the data which are extrapolated back to zero drug concentration.

[5] = Solubility of MN-029 di-hydrochloride in aqueous citric acid; details: aqueous citric acid (4.75 mg/ml), 25° C., 12 hours shaking
Description: Without being held to any particular theory, the present inventor believes that the enhanced solubility of the di-hydrochloride salt is enhanced by the lower pH of the resulting solution. That is, the reduced pH of a solution of the di-hydrochloride of MN-029 improves its aqueous solubility. To test this theory, the present inventor measured the solubility of MN-029 di-hydrochloride in aqueous citric acid and in citrate buffers at different pH values. Two samples of the di-hydrochloride salt in aqueous citric acid were prepared by adding 10 ml of an aqueous citric acid solution to 36.9 mg and 74.5 mg of MN-029 di-hydrochloride salt in a vial.
After equilibration with shaking at 25° C. for 12 hours, visual inspection of the solution in each vial indicated a clear colorless solution with no solid residue. Accordingly, the solubility MN-029 di-hydrochloride in aqueous citric acid (4.75 mg/ml) was calculated to exceed […] of the di-hydrochloride per milliliter of aqueous citric acid.

[6] = Log P, Log Pion, Log D by potentiometric titration (Sirius GlpKa, octanol:water); details: octanol:ionic-strength adjusted water
Description: Most drugs have an ideal log P value and any deviation from this idealized value results in reduced absorption, slow transport of drug to the site of action and consequently, a decrease in biological activity. Table 8, illustrates the predicted and measured values for partition coefficients of MN-029 di-hydrochloride. The data was collected by potentiometric titration using a Sirius GlpKa instrument using three ratios of octanol:ionic-strength adjusted water to generate Log P, Log Pion and Log D values and the raw data was analyzed using Refinement Pro Software V.1.0. The predicted value of Log P was obtained using ACD V. software and Syracuse KOWWIN V.1.67 softwares.

[7] = 25° C., equilibration for 24 hours
[8] = In Deionized Water, 8.00* mg/mL (precipitated upon sitting overnight)

- Weight change ([1]; 0% RH to 40% RH): +0.56 % w/w
- Weight change ([1]; 40% RH to 90% RH, listed as A063886, di-hydrochloride): Reversible uptake of +0.86% w/w
- Weight change ([1]; 40% RH to 90% RH, listed as MN029*2HCl, di-hydrochloride): +0.86 % w/w
- Weight change ([1]; 90% RH to 0% RH): −1.45 % w/w
- XRPD of residue after GVS ([1]; sample subjected to GVS): No significant difference
- fold more soluble in water than the mono-hydrochloride salt [2]: at least 3 fold
- Concentration of filtrate [2, 7]: 2.1 mg/ml of free base
- pH of saturated solution [2, 7]: 1.03
- fold less soluble at pH of about 5.5 than at pH of about 1.0 [3]: approximately 3000 fold
- solubility ([3]; pH 0.96, 25° C.): 2900 µg/mL
- solubility ([3]; pH 2.03, 25° C.): 1600 µg/mL
- solubility ([3]; pH 3.23, 25° C.): 39 µg/mL
- solubility ([3]; pH 5.57, 25° C.): < 1 µg/mL
- solubility ([4]; 15% HPBCD solution, aqueous with cosolvent or surfactant or cyclodextrin, thermodynamic from solid, read-out: concentration solubilized by 15% HPBCD (solutions clear after overnight shaking)): ≥ 30000 µg/mL
- Osmolality ([4]; In 15% HPBCD, 5.35 mg/mL): 162 mOsm/kg
- pH ([4]; In 15% HPBCD, 5.35 mg/mL): 2.40
- Osmolality ([4]; In 15% HPBCD, 10.1 mg/mL): 182 mOsm/kg
- pH ([4]; In 15% HPBCD, 10.1 mg/mL): 2.21
- Osmolality ([4]; In 15% HPBCD, 15.3 mg/mL): 203 mOsm/kg
- pH ([4]; In 15% HPBCD, 15.3 mg/mL): 2.10
- Osmolality ([4]; In 15% HPBCD, 20.1 mg/mL): 221 mOsm/kg
- pH ([4]; In 15% HPBCD, 20.1 mg/mL): 2.04
- Osmolality ([4]; In 15% HPBCD, 30.1 mg/mL): 259 mOsm/kg
- pH ([4]; In 15% HPBCD, 30.1 mg/mL): 1.89
- Osmolality ([4]; In Deionized Water, 1.05 mg/mL): 6 mOsm/kg
- pH ([4]; In Deionized Water, 1.05 mg/mL): 3.25
- Osmolality ([4]; In Deionized Water, 2.04 mg/mL): 11 mOsm/kg
- pH ([4]; In Deionized Water, 2.04 mg/mL): 3.03
- Osmolality ([4]; In Deionized Water, 4.03 mg/mL): 22 mOsm/kg
- pH ([4]; In Deionized Water, 4.03 mg/mL): 2.82
- Osmolality ([4]; In Deionized Water, 5.96 mg/mL): 32 mOsm/kg
- pH ([4]; In Deionized Water, 5.96 mg/mL): 2.63
- Osmolality [4, 8]: 36* mOsm/kg
- pH [4, 8]: 1.90*
- Measured LogPion(cation) [6]: 0.93
- Measured LogD7.4 ([6]; pH 7.4): 2.10
- logD ([6]; pH 7.4, read-out: Measured LogD7.4): 2.1
- logP ([6]; read-out: Measured LogP): 2.64
Compound: COC(=O)Nc1nc2ccc(Sc3ccc(NC(=O)[C@H](C)N)cc3)cc2[nH]1 [MN-029 di-hydrochloride, carbamic acid N-[6-[[4-[[(2S)-2-amino-1-oxopropyl]amino]phenyl]thio]-1H-benzimidazol-2-yl]-methyl ester di-hydrochloride]
- solubility in aqueous citric acid [5]: exceed 7.54 mg of the di-hydrochloride per milliliter of aqueous citric acid
